pIC50: −log10 of the molar value.
target: PI 3-kinase gamma (Homo sapiens (Human), UniProt P48736); assay: TR-FRET Adapta assay (Assay E); format: biochemical; conditions: read-out: Assay E PI3Kγ IC50
Source text: TR-FRET Adapta Assay for PI 3-Kinase Gamma (E), PI 3-Kinase Delta (F)
The TR-FRET Adapta™ Universal Kinase Assay Kit was purchased from Invitrogen Corporation (Carlsbad/CA, USA) (Cat. No. PV5099). The kit contains the following reagents: Adapta Eu-anti-ADP Antibody (Europium labeled anti-ADP antibody in HEPES buffered saline, Cat. No. PV5097), Alexa Fluor® 647-labeled ADP tracer (Alexa Fluor® 647-labeled ADP tracer in HEPES buffered saline, Cat. No. PV5098), TR-FRET dilution buffer pH 7.5 (Cat. No. PV3574). PIK3CD substrate phosphatidylinositol (PI) was obtained from Invitrogen (vesicules consisting of 2 mM phosphatidylinositol (PI) in 50 mM HEPES pH7.5; Cat. No. PV5371). PIK3CG substrate phosphatidylinositol-4,5-bisphosphate (PIP(4,5)2 was obtained from Invitrogen (PIP2:PS large unilamellar vesicules consisting of 1 mM PIP2: 19 mM PS in 50 mM HEPES pH7.5, 3 mM MgCl2, 1 mM EGTA; Cat. No. PV5100).
Time-Resolved Fluorescence Resonance Energy Transfer (TR-FRET) is a technology based on energy transfer between two adjacent dyes, from an excited electron in one dye (the donor) to an electron of an adjacent dye (the acceptor) through resonance, then released as a photon. This energy transfer is detected by an increase in the fluorescence emission of the acceptor, and a decrease in the fluorescence emission of the donor. TR-FRET assays for protein kinases use a long-lifetime lanthanide Terbium or Europium chelates as the donor species which overcome interference from compound autofluorescence or light scatter from precipitated compounds, by introducing a delay after excitation by a flashlamp excitation source. Results are often expressed as a ratio of the intensities of the acceptor and donor fluorophores. The ratiometric nature of such a value corrects for differences in assay volumes between wells, as well as corrects for quenching effects due to colored compounds. The Adapta™ assay can be divided into two phases: a kinase reaction phase and an ADP detection phase. In the kinase reaction phase, all kinase reaction components are added to the well and the reaction is allowed to incubate for a set period of time specific for each kinase. After the reaction, a detection solution of Eu-labeled anti-ADP antibody, Alexa Fluor® 647-labeled ADP tracer, and EDTA (to stop the kinase reaction) are added to the assay well. ADP formed by the kinase reaction will displace the Alexa Fluor® 647-labeled ADP tracer from the antibody, resulting in a decrease in TR-FRET signal. In the presence of an inhibitor, the amount of ADP formed by the kinase reaction is reduced, and the resulting intact antibodytracer interaction maintains a high TR-FRET signal. In the Adapta™ assay, the donor (Europium-anti-ADP antibody) is excited at 340 nm and will transfer its energy to the acceptor (Alexa Fluor® 647-labeled ADP tracer). The emission from the Alexa Fluor® 647 can be monitored with a filter centered at 665 nm because it is located between the emission peaks of the donor, which is measured at 615/620 nm. 50 nL of compound dilutions were dispensed onto white 384-well small volume polystyrene plate. Then 5 μL of either PI 3-kinase gamma or PI 3-kinase delta and lipid substrate (P1 or PIP2:PS) followed by 5 μL of ATP (final assay volume 10 μL) are incubated at RT. The standard reaction buffer for the Adapta™ TR-FRET assay contained 10 mM Tris-HCl pH 7.5, 3 mM MgCl2, 50 mM NaCl, 1 mM DTT, 0.05% CHAPS ((3-[(3-cholamidopropyl)dimethylammonio]-1-propanesulfonate). Reactions were stopped with 5 μL of a mixture of EDTA containing the Eu-labeled anti-ADP antibody and the Alexa Fluor® 647-labeled ADP tracer in TR-FRET dilution buffer. Plates are read 15 to 60 mins later in a Synergy2 reader using an integration time of 0.4 seconds and a delay of 0.05 seconds. Control for the 100% inhibition of the kinase reaction was performed by replacing the PI 3-kinase by the standard reaction buffer. […]

Sequence of PI 3-kinase gamma (P48736 whole entry): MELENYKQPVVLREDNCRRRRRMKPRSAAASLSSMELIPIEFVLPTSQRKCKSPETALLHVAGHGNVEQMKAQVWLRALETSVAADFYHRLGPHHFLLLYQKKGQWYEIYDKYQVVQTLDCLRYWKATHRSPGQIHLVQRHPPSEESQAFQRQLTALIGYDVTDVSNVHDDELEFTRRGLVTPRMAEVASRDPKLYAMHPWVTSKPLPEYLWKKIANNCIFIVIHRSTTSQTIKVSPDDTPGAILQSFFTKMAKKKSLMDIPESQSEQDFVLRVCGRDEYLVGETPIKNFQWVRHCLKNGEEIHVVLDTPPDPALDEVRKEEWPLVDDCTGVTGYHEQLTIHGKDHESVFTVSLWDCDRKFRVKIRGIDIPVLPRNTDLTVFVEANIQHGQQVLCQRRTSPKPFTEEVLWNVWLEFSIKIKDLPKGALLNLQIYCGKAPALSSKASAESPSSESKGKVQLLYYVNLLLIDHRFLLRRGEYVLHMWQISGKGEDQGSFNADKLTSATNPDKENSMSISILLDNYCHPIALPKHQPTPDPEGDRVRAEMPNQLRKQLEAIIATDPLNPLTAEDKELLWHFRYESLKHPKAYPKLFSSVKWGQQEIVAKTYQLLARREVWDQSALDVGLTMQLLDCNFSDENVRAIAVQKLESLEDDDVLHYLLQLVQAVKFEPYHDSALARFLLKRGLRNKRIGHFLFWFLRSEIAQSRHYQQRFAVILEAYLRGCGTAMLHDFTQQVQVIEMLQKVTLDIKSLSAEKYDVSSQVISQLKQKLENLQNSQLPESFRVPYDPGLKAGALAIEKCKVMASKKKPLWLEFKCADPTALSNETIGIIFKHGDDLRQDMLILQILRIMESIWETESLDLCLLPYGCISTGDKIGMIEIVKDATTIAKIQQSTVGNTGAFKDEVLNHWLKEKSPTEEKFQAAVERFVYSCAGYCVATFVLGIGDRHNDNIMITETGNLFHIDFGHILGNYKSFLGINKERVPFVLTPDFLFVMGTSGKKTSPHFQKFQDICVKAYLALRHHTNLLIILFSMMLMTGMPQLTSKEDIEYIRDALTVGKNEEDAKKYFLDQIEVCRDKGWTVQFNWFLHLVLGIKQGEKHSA

| pIC50 | SMILES |
| --- | --- |
| 7.32 | Cc1ccc(S(=O)(=O)NCCC(C)(C)O)cc1-c1cncc(-c2cn(C)nc2C)n1 [Example 3, 3-[6-(1,3-Dimethyl-1H-pyrazol-4-yl)-pyrazin-2-yl]-N-(3-hydroxy-3-methyl-butyl)-4-methyl-benzenesulfonamide] |
| 7.85 | Cc1ccc(S(=O)(=O)NCC2(C)COC2)cc1-c1cncc(-c2cn(C)nc2C)n1 [Example 4, Trans 3-[6-(1,3-Dimethyl-1H-pyrazol-4-yl)-pyrazin-2-yl]-4-methyl-N-(3-methyl-oxetan-3-ylmethyl)-benzenesulfonamide] |
| 7.72 | Cc1ccc(S(=O)(=O)NCC(C)(C)O)cc1-c1cncc(-c2cn(C)nc2C)n1 [Example 2, 3-[6-(1,3-Dimethyl-1H-pyrazol-4-yl)-pyrazin-2-yl]-N-(2-hydroxy-2-methyl-propyl)-4-methyl-benzenesulfonamide] |
| 7.57 | Cc1ccc(S(=O)(=O)NCCC(C)(C)O)cc1-c1cncc(-c2cn(CCN3CCOCC3)nc2C)n1 [Example 10, N-(3-Hydroxy-3-methyl-butyl)-4-methyl-3-{6-[3-methyl-1-(2-morpholin-4-yl-ethyl)-1H-pyrazol-4-yl]-pyrazin-2-yl}-benzenesulfonamide] |
| 7.70 | Cc1ccc(S(=O)(=O)NCC(C)(C)CO)cc1-c1cncc(-c2cn(C)nc2C)n1 [Example 8, 3-[6-(1,3-Dimethyl-1H-pyrazol-4-yl)-pyrazin-2-yl]-N-(3-hydroxy-2,2-dimethyl-propyl)-4-methyl-benzenesulfonamide] |

Continued, compound first:

| SMILES | pIC50 |
| --- | --- |
| Cc1ncc(-c2cncc(-c3cc(S(=O)(=O)NCCCO)ccc3C)n2)s1 [Example 1, N-(3-Hydroxy-propyl)-4-methyl-3-[6-(2-methyl-thiazol-5-yl)-pyrazin-2-yl]-benzenesulfonamide] | 7.66 |
| Cc1ccc(S(=O)(=O)N[C@H]2CC[C@H](O)CC2)cc1-c1cncc(-c2cccnc2)n1 [Example 11, Trans N-(4-Hydroxy-cyclohexyl)-4-methyl-3-(6-pyridin-3-yl-pyrazin-2-yl)-benzenesulfonamide] | 7.06 |
| Cc1ccc(S(=O)(=O)NCCC(C)(C)O)cc1-c1cncc(-c2cnn(CCN3CCOCC3)c2)n1 [Example 9, N-(3-Hydroxy-3-methyl-butyl)-4-methyl-3-{6-[1-(2-morpholin-4-yl-ethyl)-1H-pyrazol-4-yl]-pyrazin-2-yl}-benzenesulfonamide] | 6.80 |
| Cc1ncc(-c2cncc(-c3cc(S(=O)(=O)N[C@H]4CC[C@H](O)CC4)ccc3C)n2)s1 [Example 5, Trans N-(4-Hydroxycyclohexyl)-4-methyl-3-(6-(2-methylthiazol-5-yl)pyrazin-2-yl)benzenesulfonamide] | 7.82 |
